Key:
Myzus persicae [1] = experiment: Myzus persicae spray test (Chinese cabbage leaf discs); type: in vivo; conditions: foliar, 120 h, 500 g/ha, after 5-6 days, read-out: efficacy
Protocol: Myzus persicae—Spray Test Solvent: 78 parts by weight of acetone • • 1.5 parts by weight of dimethylformamide Emulsifier: alkylaryl polyglycol ether To produce a suitable preparation of active compound, 1 part by weight of active compound is dissolved using the specified parts by weight of solvent and made up with water containing an emulsifier concentration of 1000 ppm until the desired concentration is attained. To produce further test concentrations, the formulation is diluted with emulsifier-containing water. Discs of Chinese cabbage leaves (Brassica pekinensis) infested by all stages of the green peach aphid (Myzus persicae) are sprayed with an active compound preparation of the desired concentration. After 5-6 days, the efficacy in % is determined. 100% means that all the aphids have been killed; 0% means that no aphids have been killed.

Myzus persicae [2] = experiment: Myzus persicae oral test; type: in vivo; conditions: 120 h, 20 ppm, oral uptake, after 5 days, read-out: efficacy
Protocol: Myzus persicae—Oral Test Solvent: 100 parts by weight of acetone To produce a suitable preparation of active compound, 1 part by weight of active compound is dissolved using the specified parts by weight of solvent and made up with water until the desired concentration is attained. 50 μl of the active compound preparation are transferred into microtitre plates and made up to a final volume of 200 μl with 150 μl of IPL41 insect medium (33%+15% sugar). Subsequently, the plates are sealed with parafilm, which a mixed population of green peach aphids (Myzus persicae) within a second microtitre plate is able to puncture and imbibe the solution through it. After 5 days, the efficacy in % is determined. 100% means that all the aphids have been killed; 0% means that no aphids have been killed.

SMILES	pest or weed control at 500 g/ha (Myzus persicae [1]) [%]	pest or weed control at 20 ppm (Myzus persicae [2]) [%]
COc1ccc(F)c(S(=O)(=O)NC(=O)c2cn(C)c(-c3c(F)cccc3F)n2)c1 [Example 170]	90	100
Cc1ccccc1S(=O)(=O)NC(=O)c1nc(-c2c(F)cccc2F)c(C)[nH]1 [Example 147]	100	100
Cn1cc(C(=O)NS(=O)(=O)c2ccccc2Br)nc1-c1ncccc1F [Example 564]	100	100
CCn1cc(C(=O)NS(=O)(=O)c2ccccc2C)nc1-c1c(F)cccc1F [Example 570]	100	100
Cn1cc(C(=O)NS(=O)(=O)c2cnccc2Cl)nc1-c1ccccc1Cl [Example 220]	100	100
Cc1ccc(F)cc1S(=O)(=O)NC(=O)c1cn(C)c(-c2cccnc2Cl)n1 [Example 566]	100	100
Cn1cc(C(=O)NS(=O)(=O)CC(F)(F)F)nc1-c1ccccc1Cl [Example 66]	100	100
COc1ccc(OC)c(S(=O)(=O)NC(=O)c2cn(C)c(-c3cccc(Cl)c3Cl)n2)c1 [Example 462]	90	90
Cc1ccc(F)c(S(=O)(=O)NC(=O)c2cn(C)c(-c3c(F)cccc3F)n2)c1 [Example 454]	90	100
CCn1cc(C(=O)NS(=O)(=O)c2ccccc2C)nc1-c1ccccc1Cl [Example 22]	100	100
COCCS(=O)(=O)NC(=O)c1cn(C)c(-c2c(F)cccc2Cl)n1 [Example 150]	90	90
COc1ccc(Cl)c(S(=O)(=O)NC(=O)c2cn(C)c(-c3ccccc3F)n2)c1 [Example 95]	90	100
CCc1ccsc1S(=O)(=O)NC(=O)c1cn(C)c(-c2ncccc2F)n1 [Example 604]	90	90
Cn1cc(C(=O)NS(=O)(=O)c2ccccc2Br)nc1-c1ncccc1Cl [Example 585]	100	100
Cn1cc(C(=O)NS(=O)(=O)c2ccccc2Cl)nc1-c1c(F)cccc1F [Example 91]	90	100
Cc1ccccc1S(=O)(=O)NC(=O)c1cn(C)c(-c2c(F)cccc2Cl)n1 [Example 110]	90	100
Cn1cc(C(=O)NS(=O)(=O)c2ccccc2Cl)nc1-c1ccccc1C(F)(F)F [Example 115]	100	90
Cn1cc(C(=O)NS(=O)(=O)c2ccccc2Cl)nc1-c1ccccc1[N+](=O)[O-] [Example 524]	90	100
CCc1[nH]c(-c2c(F)cccc2F)nc1C(=O)NS(=O)(=O)c1ccccc1C [Example 125]	90	100
CCc1[nH]c(-c2c(F)cccc2F)nc1C(=O)NS(=O)(=O)C(C)C [Example 126]	90	90
Cc1ccccc1-c1nc(C(=O)NS(=O)(=O)c2ccccc2C(F)(F)F)cn1C [Example 28]	100	100
Cc1ccc(F)cc1S(=O)(=O)NC(=O)c1cn(C)c(-c2ncccc2F)n1 [Example 562]	100	100
Cn1cc(C(=O)NS(=O)(=O)c2ccccc2Cl)nc1-c1ccccc1OC(F)(F)F [Example 459]	90	100
COc1ccc(Br)c(S(=O)(=O)NC(=O)c2cn(C)c(-c3ncccc3F)n2)c1 [Example 607]	90	100
COc1ccc(F)cc1S(=O)(=O)NC(=O)c1cn(C)c(-c2c(F)cccc2F)n1 [Example 17]	90	100
Cn1cc(C(=O)NS(=O)(=O)c2ccccc2Cl)nc1-c1cccnc1Cl [Example 490]	90	100
COc1ccc(C)cc1S(=O)(=O)NC(=O)c1cn(C)c(-c2c(F)cccc2F)n1 [Example 390]	100	100

Reference: patent US20200288710A1, “SUBSTITUTED SULPHONAMIDES FOR CONTROLLING ANIMAL PESTS” (BAYER CROPSCIENCE AKTIENGESELLSCHAFT, priority 2016, published 2020)
